Measurements: ChEMBL document CHEMBL2407067, “Pyridone-conjugated monobactam antibiotics with gram-negative activity” (J Med Chem, 2013)
pIC50: −log10 of the molar value. Converted amounts (≈) assume the structure as drawn.

What was measured:
[1] = Inhibition of PBP1a in Pseudomonas aeruginosa ATCC 27853 after 20 mins by fluorescence assay
Klebsiella pneumoniae [2] = experiment: Antibacterial activity against Klebsiella pneumoniae expressing KPC by broth microdilution method; type: functional
Escherichia coli [3] = experiment: Antibacterial activity against Escherichia coli expressing defined beta-lactamase by broth microdilution method; type: functional
Pseudomonas aeruginosa [4] = experiment: Antibacterial activity against Pseudomonas aeruginosa from cystic fibrosis patients by broth microdilution method; type: functional
Acinetobacter sp. = experiment: Antibacterial activity against Acinetobacter spp. by broth microdilution method; type: functional
Escherichia coli [5] = experiment: Antibacterial activity against Escherichia coli expressing CTX-M by broth microdilution method; type: functional
Acinetobacter baumannii = experiment: Antibacterial activity against Acinetobacter baumannii AB-3167 by broth microdilution method; type: functional
Pseudomonas aeruginosa [6] = experiment: Antibacterial activity against Pseudomonas aeruginosa 1042-06 by broth microdilution method; type: functional
[7] = Inhibition of PBP3 in Pseudomonas aeruginosa ATCC 27853 after 20 mins by fluorescence assay
Klebsiella pneumoniae [8] = experiment: Antibacterial activity against Klebsiella pneumoniae 1487-07 by broth microdilution method; type: functional
Klebsiella pneumoniae [9] = experiment: Antibacterial activity against Klebsiella pneumoniae 1000-02 by broth microdilution method; type: functional
Pseudomonas aeruginosa [10] = experiment: microbe, parasite or virus in culture; details: 1091-05
Description: Antibacterial activity against Pseudomonas aeruginosa 1091-05 by broth microdilution method

[11] = Inhibition of PBP1b in Pseudomonas aeruginosa ATCC 27853 after 20 mins by fluorescence assay
Klebsiella pneumoniae [12] = experiment: Antibacterial activity against Klebsiella pneumoniae expressing ESBL by broth microdilution method; type: functional
Escherichia coli [13] = experiment: Antibacterial activity against Escherichia coli expressing ESBL by broth microdilution method; type: functional
Klebsiella pneumoniae [14] = experiment: Antibacterial activity against Klebsiella pneumoniae expressing defined beta-lactamase by broth microdilution method; type: functional
Pseudomonas aeruginosa [15] = experiment: Antibacterial activity against Pseudomonas aeruginosa expressing metallo-beta-lactamase by broth microdilution method; type: functional
[16] = Inhibition of PBP2 in Pseudomonas aeruginosa ATCC 27853 after 20 mins by fluorescence assay
[17] = Plasma clearance in Wistar Han rat at 1 mg/kg, iv by LC/MS/MS analysis; type: ADME, organism-based; design: dose 1 mg/kg, route intravenous
[18] = Fraction unbound in mouse plasma; type: ADME, cell-free
Rattus norvegicus = experiment: Intrinsic clearance in Wistar Han rat at 1 mg/kg, iv by LC/MS/MS analysis; type: ADME, organism-based; design: dose 1 mg/kg, route intravenous; details: in vivo
[19] = Fraction unbound in rat plasma; type: ADME, cell-free
[20] = Fraction unbound in human plasma; type: ADME, cell-free
Pseudomonas aeruginosa [21] = experiment: Antibacterial activity against PiuA/PirA receptor-deficient Pseudomonas aeruginosa PAO1 in iron-chelated Muller-Hinton broth medium by broth microdilution method; type: functional
Pseudomonas aeruginosa [22] = experiment: Antibacterial activity against FpvA receptor-deficient Pseudomonas aeruginosa PAO1 in Muller-Hinton broth medium by broth microdilution method; type: functional
Pseudomonas aeruginosa [23] = experiment: Antibacterial activity against PiuA/FptA receptor-deficient Pseudomonas aeruginosa PAO1 in Muller-Hinton broth medium by broth microdilution method; type: functional
Pseudomonas aeruginosa [24] = experiment: Ratio of MIC for PiuA receptor-deficient Pseudomonas aeruginosa PAO1 to MIC for Pseudomonas aeruginosa PAO1 in Muller-Hinton broth medium by broth microdilution method; type: functional
Pseudomonas aeruginosa [25] = experiment: Antibacterial activity against FptA receptor-deficient Pseudomonas aeruginosa PAO1 in iron-chelated Muller-Hinton broth medium by broth microdilution method; type: functional
Pseudomonas aeruginosa [26] = experiment: Antibacterial activity against PiuA/FptA receptor-deficient Pseudomonas aeruginosa PAO1 in iron-chelated Muller-Hinton broth medium by broth microdilution method; type: functional
Pseudomonas aeruginosa [27] = experiment: Antibacterial activity against PiuA receptor-deficient Pseudomonas aeruginosa PAO1 in iron-chelated Muller-Hinton broth medium by broth microdilution method; type: functional
Pseudomonas aeruginosa [28] = experiment: Antibacterial activity against PiuA/PirA receptor-deficient Pseudomonas aeruginosa PAO1 in Muller-Hinton broth medium by broth microdilution method; type: functional
Pseudomonas aeruginosa [29] = experiment: Antibacterial activity against FpvA receptor-deficient Pseudomonas aeruginosa PAO1 in iron-chelated Muller-Hinton broth medium by broth microdilution method; type: functional
Pseudomonas aeruginosa [30] = experiment: Antibacterial activity against PirA receptor-deficient Pseudomonas aeruginosa PAO1 in Muller-Hinton broth medium by broth microdilution method; type: functional
Pseudomonas aeruginosa [31] = experiment: Ratio of MIC for PiuA/PirA receptor-deficient Pseudomonas aeruginosa PAO1 to MIC for Pseudomonas aeruginosa PAO1 in Muller-Hinton broth medium by broth microdilution method; type: functional
Pseudomonas aeruginosa [32] = experiment: Antibacterial activity against PiuA/FpvA receptor-deficient Pseudomonas aeruginosa PAO1 in Muller-Hinton broth medium by broth microdilution method; type: functional
Pseudomonas aeruginosa [33] = experiment: Antibacterial activity against PirA receptor-deficient Pseudomonas aeruginosa PAO1 in iron-chelated Muller-Hinton broth medium by broth microdilution method; type: functional
Pseudomonas aeruginosa [34] = experiment: Ratio of MIC for PiuA/PirA receptor-deficient Pseudomonas aeruginosa PAO1 to MIC for Pseudomonas aeruginosa PAO1 in iron-chelated Muller-Hinton broth medium by broth microdilution method; type: functional
Pseudomonas aeruginosa [35] = experiment: Antibacterial activity against PiuA/FpvA receptor-deficient Pseudomonas aeruginosa PAO1 in iron-chelated Muller-Hinton broth medium by broth microdilution method; type: functional
Pseudomonas aeruginosa [36] = experiment: Antibacterial activity against Pseudomonas aeruginosa PAO1 in Muller-Hinton broth medium by broth microdilution method; type: functional
Pseudomonas aeruginosa [37] = experiment: Antibacterial activity against PiuA receptor-deficient Pseudomonas aeruginosa PAO1 in Muller-Hinton broth medium by broth microdilution method; type: functional
Pseudomonas aeruginosa [38] = experiment: Antibacterial activity against FptA receptor-deficient Pseudomonas aeruginosa PAO1 in Muller-Hinton broth medium by broth microdilution method; type: functional

Compound: C[C@H]1[C@H](NC(=O)/C(=N\OC(C)(C)C(=O)O)c2csc(N)n2)C(=O)N1S(=O)(=O)O [AZTREONAM]
- pIC50 [1]: 5.48
- MIC50 (Klebsiella pneumoniae [2]): > 64 µg/mL
- MIC90 (Klebsiella pneumoniae [2]): > 64 µg/mL
- MIC50 (Escherichia coli [3]): 4 µg/mL (≈ 9.19 µM)
- MIC90 (Escherichia coli [3]): > 64 µg/mL
- MIC50 (Pseudomonas aeruginosa [4]): 8 µg/mL (≈ 18.4 µM)
- MIC90 (Pseudomonas aeruginosa [4]): 64 µg/mL (≈ 147 µM)
- MIC50 (Acinetobacter sp.): 32 µg/mL (≈ 73.5 µM)
- MIC90 (Acinetobacter sp.): > 64 µg/mL
- MIC50 (Escherichia coli [5]): 64 µg/mL (≈ 147 µM)
- MIC90 (Escherichia coli [5]): > 64 µg/mL
- MIC (Acinetobacter baumannii): 4 µg/mL (≈ 9.19 µM)
- MIC (Pseudomonas aeruginosa [6]): 64 µg/mL (≈ 147 µM)
- pIC50 [7]: 8.10
- MIC (Klebsiella pneumoniae [8]): > 64 µg/mL
- MIC (Klebsiella pneumoniae [9]): > 64 µg/mL
- MIC (Pseudomonas aeruginosa [10]): 4 µg/mL (≈ 9.19 µM)
- pIC50 [11]: 5.54
- MIC50 (Klebsiella pneumoniae [12]): 32 µg/mL (≈ 73.5 µM)
- MIC90 (Klebsiella pneumoniae [12]): > 64 µg/mL
- MIC50 (Escherichia coli [13]): 64 µg/mL (≈ 147 µM)
- MIC90 (Escherichia coli [13]): > 64 µg/mL
- MIC50 (Klebsiella pneumoniae [14]): 64 µg/mL (≈ 147 µM)
- MIC90 (Klebsiella pneumoniae [14]): > 64 µg/mL
- MIC50 (Pseudomonas aeruginosa [15]): 8 µg/mL (≈ 18.4 µM)
- MIC90 (Pseudomonas aeruginosa [15]): 16 µg/mL (≈ 36.7 µM)
- pIC50 [16]: < 3.52

Compound: CC(C)(O/N=C(\C(=O)N[C@@H]1C(=O)N(S(=O)(=O)O)[C@@H]1Cn1cc(COCc2cc(=O)c(O)cn2O)nn1)c1csc(N)n1)C(=O)O
- clearance [17]: 31.3 mL/min/kg
- fraction unbound [18]: 0.8
- CL (Rattus norvegicus): 94 mL/min/kg
- fraction unbound [19]: 0.6
- MIC (Acinetobacter baumannii): 0.25 µg/mL (≈ 0.372 µM)
- MIC (Pseudomonas aeruginosa [6]): 1 µg/mL (≈ 1.49 µM)
- MIC (Pseudomonas aeruginosa [10]): 0.25 µg/mL (≈ 0.372 µM)
- fraction unbound [20]: 0.5

Compound: CC(C)(O/N=C(\C(=O)N[C@@H]1C(=O)N(S(=O)(=O)O)[C@@H]1CNC(=O)NCc1cc(=O)c(O)cn1O)c1csc(N)n1)C(=O)O
- MIC (Pseudomonas aeruginosa [21]): 32 µg/mL (≈ 50.6 µM)
- clearance [17]: 8.4 mL/min/kg
- pIC50 [1]: 6.21
- MIC50 (Klebsiella pneumoniae [2]): 4 µg/mL (≈ 6.32 µM)
- MIC90 (Klebsiella pneumoniae [2]): 16 µg/mL (≈ 25.3 µM)
- MIC50 (Escherichia coli [3]): 0.125 µg/mL (≈ 0.198 µM)
- MIC90 (Escherichia coli [3]): 1 µg/mL (≈ 1.58 µM)
- MIC (Pseudomonas aeruginosa [22]): 0.25 µg/mL (≈ 0.395 µM)
- MIC50 (Pseudomonas aeruginosa [4]): 0.25 µg/mL (≈ 0.395 µM)
- MIC90 (Pseudomonas aeruginosa [4]): 4 µg/mL (≈ 6.32 µM)
- MIC (Pseudomonas aeruginosa [23]): 8 µg/mL (≈ 12.6 µM)
- Ratio (Pseudomonas aeruginosa [24]): 32
- fraction unbound [18]: 0.91
- CL (Rattus norvegicus): 10 mL/min/kg
- MIC50 (Acinetobacter sp.): 8 µg/mL (≈ 12.6 µM)
- MIC90 (Acinetobacter sp.): > 64 µg/mL
- MIC (Pseudomonas aeruginosa [25]): 0.25 µg/mL (≈ 0.395 µM)
- fraction unbound [19]: 0.91
- MIC50 (Escherichia coli [5]): 0.5 µg/mL (≈ 0.79 µM)
- MIC90 (Escherichia coli [5]): 1 µg/mL (≈ 1.58 µM)
- MIC (Pseudomonas aeruginosa [26]): 0.5 µg/mL (≈ 0.79 µM)
- MIC (Pseudomonas aeruginosa [27]): 0.5 µg/mL (≈ 0.79 µM)
- MIC (Pseudomonas aeruginosa [28]): 32 µg/mL (≈ 50.6 µM)
- MIC (Acinetobacter baumannii): 0.25 µg/mL (≈ 0.395 µM)
- MIC (Pseudomonas aeruginosa [29]): 0.06 µg/mL (≈ 0.0948 µM)
- MIC (Pseudomonas aeruginosa [6]): 2 µg/mL (≈ 3.16 µM)
- MIC (Pseudomonas aeruginosa [30]): 0.25 µg/mL (≈ 0.395 µM)
- pIC50 [7]: 7.27
- MIC (Klebsiella pneumoniae [8]): 2 µg/mL (≈ 3.16 µM)
- Ratio (Pseudomonas aeruginosa [31]): >=64
- MIC (Pseudomonas aeruginosa [32]): 8 µg/mL (≈ 12.6 µM)
- MIC (Pseudomonas aeruginosa [33]): 0.25 µg/mL (≈ 0.395 µM)
- MIC (Klebsiella pneumoniae [9]): 0.25 µg/mL (≈ 0.395 µM)
- MIC (Pseudomonas aeruginosa [10]): 0.25 µg/mL (≈ 0.395 µM)
- Ratio (Pseudomonas aeruginosa [34]): >=64
- MIC (Pseudomonas aeruginosa [35]): 0.25 µg/mL (≈ 0.395 µM)
- pIC50 [11]: 5.78
- fraction unbound [20]: 1
- MIC90 (Klebsiella pneumoniae [12]): 1 µg/mL (≈ 1.58 µM)
- MIC (Pseudomonas aeruginosa [36]): 0.25 µg/mL (≈ 0.395 µM)
- MIC50 (Escherichia coli [13]): 0.25 µg/mL (≈ 0.395 µM)
- MIC90 (Escherichia coli [13]): 2 µg/mL (≈ 3.16 µM)
- MIC (Pseudomonas aeruginosa [37]): 8 µg/mL (≈ 12.6 µM)
- MIC50 (Klebsiella pneumoniae [14]): 0.5 µg/mL (≈ 0.79 µM)
- MIC90 (Klebsiella pneumoniae [14]): 16 µg/mL (≈ 25.3 µM)
- MIC (Pseudomonas aeruginosa [38]): 0.25 µg/mL (≈ 0.395 µM)
- MIC50 (Pseudomonas aeruginosa [15]): 0.25 µg/mL (≈ 0.395 µM)
- MIC90 (Pseudomonas aeruginosa [15]): 1 µg/mL (≈ 1.58 µM)
- pIC50 [16]: < 3.52
